Results: US20240226115A1, “AXL INHIBITOR COMPOUNDS” (ARCUS BIOSCIENCES, INC., priority 2021, published 2024)
pIC50: −log10 of the molar value.

Target: T1, Axl (Homo sapiens, UniProt P30530)
T1 sequence (P30530 26-894): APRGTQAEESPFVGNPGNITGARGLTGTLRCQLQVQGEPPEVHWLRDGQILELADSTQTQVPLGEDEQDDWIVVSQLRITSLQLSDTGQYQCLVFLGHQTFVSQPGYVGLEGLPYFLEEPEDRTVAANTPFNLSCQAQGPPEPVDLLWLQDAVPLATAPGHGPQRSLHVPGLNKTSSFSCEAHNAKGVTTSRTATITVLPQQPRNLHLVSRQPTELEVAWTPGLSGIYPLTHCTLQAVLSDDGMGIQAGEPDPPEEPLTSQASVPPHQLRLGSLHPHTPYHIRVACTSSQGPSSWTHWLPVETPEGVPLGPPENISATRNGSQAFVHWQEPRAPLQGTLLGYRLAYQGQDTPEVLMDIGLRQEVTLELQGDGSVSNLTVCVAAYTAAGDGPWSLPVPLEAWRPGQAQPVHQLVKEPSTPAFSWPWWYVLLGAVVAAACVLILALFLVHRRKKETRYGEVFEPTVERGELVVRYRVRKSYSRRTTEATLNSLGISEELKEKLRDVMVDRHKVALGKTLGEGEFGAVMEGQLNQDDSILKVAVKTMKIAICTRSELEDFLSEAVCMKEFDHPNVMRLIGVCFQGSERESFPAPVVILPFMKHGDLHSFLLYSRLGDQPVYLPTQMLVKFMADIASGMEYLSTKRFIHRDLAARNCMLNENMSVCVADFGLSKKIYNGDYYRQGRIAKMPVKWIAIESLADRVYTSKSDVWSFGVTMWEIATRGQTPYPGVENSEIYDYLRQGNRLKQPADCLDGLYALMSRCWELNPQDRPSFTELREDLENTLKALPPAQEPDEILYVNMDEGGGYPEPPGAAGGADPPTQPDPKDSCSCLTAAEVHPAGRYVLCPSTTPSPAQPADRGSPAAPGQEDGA
Experiment: Axl NanoBRET intracellular kinase assay (Cell Binding)
Set-up: host or cells: HEK-293
Settings: HEK-293 cells transfected with Axl-NanoLuc fusion vector; displacement of K-5 NanoBRET tracer
Description: Axl NanoBRET™ intracellular kinase assay (Promega, N2540) was performed according to manufacturer's recommendation. In brief, HEK-293 cells are transiently transfected with Axl-NanoLuc fusion vector (Promega, NV1071), utilizing Fugene HD transfection reagent (Promega, E2311) a day before experiment following manufacturer's recommendation.
The day of the assay, the cells were collected and resuspended in Opti-MEM media (ThermoFisher, 31985070) at 2e5 cells/mL concentration. Testing compounds were serial diluted and dispensed into a white 384 well polystyrene plate at 200 nL in 100% DMSO. 40 μL of resuspended cells is then added per well for a final condition of 8K cells/well with 0.5% DMSO. After one-hour compound pre-incubation at 37° C. and 5% CO2, cells were further incubated with 0.35 μM K-5 NanoBRET tracer for two-hours at 37° C. and 5% CO2. […] of 3× substrate plus Inhibitor solution was prepared according to kits manual and added to the cells followed by a 30 second pulse centrifugation spin. The plate was then immediately read utilizing an Envision (Perkin Elmer) plate reader. The BRET signal is measured by taking the ratio of the emissions reading at 610 nm and 450 nm. Compound binding is based on the decrease BRET signal caused by the displacement of the K-5 tracer. […] IC50 value of compounds was determined by 4-parameter non-linear regression fitting of percent activity in GraphPad Prism software.

| Structure (SMILES) | pIC50 |
| --- | --- |
| O=C1NCCOc2cc(-c3n[nH]c4ncc(-c5ccc6c(n5)CCC(N5CCCC5)CC6)cc34)ccc21 (stereo not shown) [Example 63, 8-{5-[7-(Pyrrolidin-1-yl)-5H,6H,7H,8H,9H-cyclohepta[b]pyridin-2-yl]-1H-pyrazolo[3,4-b]pyridin-3-yl}-2,3,4,5-tetrahydro-1,4-benzoxazepin-5-one] | 6.00 to 7.00 |
| O=C1NCCOc2cc(-c3n[nH]c4ncc(-c5ccc6c(c5)CNCC6)cc34)ccc21 [Example 55, 8-(5-(1,2,3,4-Tetrahydroisoquinolin-7-yl)-1H-pyrazolo[3,4-b]pyridin-3-yl)-3,4-dihydrobenzo[f][1,4]oxazepin-5(2H)-one] | 6.00 to 7.00 |
| O=C1NCCOc2cc(-c3n[nH]c4ncc(-c5ccc6c(c5)CCC(N5CCC[C@H]5CO)CC6)cc34)ccc21 (stereo partly drawn) [Example 50, 8-(5-{7-[(2S)-2-(Hydroxymethyl)pyrrolidin-1-yl]-6,7,8,9-tetrahydro-5H-benzo[7]annulen-2-yl}-1H-pyrazolo[3,4-b]pyridin-3-yl)-2,3,4,5-tetrahydro-1,4-benzoxazepin-5-one] | > 7.00 |
| CC(C)(O)C(=O)N1CCc2ccc(-c3cnc4[nH]nc(-c5ccc6c(c5)OCCNC6=O)c4c3)cc2CC1 [Example 19, 8-(5-(3-(2-Hydroxy-2-methylpropanoyl)-2,3,4,5-tetrahydro-1H-benzo[d]azepin-7-yl)-1H-pyrazolo[3,4-b]pyridin-3-yl)-3,4-dihydrobenzo[f][1,4]oxazepin-5(2H)-one] | 6.00 to 7.00 |
| COCCN1CCc2cc(-c3cnc4[nH]nc(-c5ccc6c(c5)OCCNC6=O)c4c3)ccc2C1 [Example 13, 8-(5-(2-(2-Methoxyethyl)-1,2,3,4-tetrahydroisoquinolin-6-yl)-1H-pyrazolo[3,4-b]pyridin-3-yl)-3,4-dihydrobenzo[f][1,4]oxazepin-5(2H)-one] | 6.00 to 7.00 |
| Cc1cc2c(cc1-c1cnc3[nH]nc(-c4ccc5c(c4)OCCNC5=O)c3c1)CCC(N1CCC[C@H]1C)CC2 (stereo partly drawn) [Example 64, 8-(5-{3-Methyl-7-[(2R)-2-methylpyrrolidin-1-yl]-6,7,8,9-tetrahydro-5H-benzo[7]annulen-2-yl}-1H-pyrazolo[3,4-b]pyridin-3-yl)-2,3,4,5-tetrahydro-1,4-benzoxazepin-5-one] | > 7.00 |
| C[C@@H]1CCCN1C1CCc2ccc(-c3cnc4[nH]nc(-c5ccc6c(c5)OCC5(CCC5)NC6=O)c4c3)cc2CC1 (stereo partly drawn) [Example 37, 8-(5-{7-[(2R)-2-Methylpyrrolidin-1-yl]-6,7,8,9-tetrahydro-5H-benzo[7]annulen-2-yl}-1H-pyrazolo[3,4-b]pyridin-3-yl)-4,5-dihydro-2H-spiro[1,4-benzoxazepine-3,1′-cyclobutan]-5-one] | > 7.00 |
| CC(C)C(=O)N1CCc2ccc(-c3cnc4[nH]nc(-c5ccc6c(c5)OCCNC6=O)c4c3)cc2CC1 [Example 16, 8-{5-[3-(2-Methylpropanoyl)-2,3,4,5-tetrahydro-1H-3-benzazepin-7-yl]-1H-pyrazolo[3,4-b]pyridin-3-yl}-2,3,4,5-tetrahydro-1,4-benzoxazepin-5-one] | 6.00 to 7.00 |
| C[C@@H]1CCCN1C1CCc2ccc(-c3cnc4[nH]nc(-c5ccc6c(c5)OCCNC6=O)c4c3)cc2CC1 (stereo partly drawn) [Example 44, 8-(5-{7-[(2R)-2-Methylpyrrolidin-1-yl]-6,7,8,9-tetrahydro-5H-benzo[7]annulen-2-yl}-1H-pyrazolo[3,4-b]pyridin-3-yl)-2,3,4,5-tetrahydro-1,4-benzoxazepin-5-one] | > 7.00 |
| C[C@@H]1CCCN1C1CCc2ccc(-c3cnc4[nH]nc(-c5ccc6c(c5)S(=O)(=O)NC6(C)C)c4c3)cc2CC1 (stereo partly drawn) [Example 33, 3,3-Dimethyl-6-(5-{7-[(2R)-2-methylpyrrolidin-1-yl]-6,7,8,9-tetrahydro-5H-benzo[7]annulen-2-yl}-1H-pyrazolo[3,4-b]pyridin-3-yl)-2,3-dihydro-1λ^6,2-benzothiazole-1,1-dione] | > 7.00 |
| O=C1NCCOc2cc(-c3n[nH]c4ncc(-c5ccc6c(c5)CCC(N5CCCC5)CC6)cc34)ccc21 (racemic) [Example 1, 8-{5-[7-(Pyrrolidin-1-yl)-6,7,8,9-tetrahydro-5H-benzo[7]annulen-2-yl]-1H-pyrazolo[3,4-b]pyridin-3-yl}-2,3,4,5-tetrahydro-1,4-benzoxazepin-5-one] | > 7.00 |
| CC1(O)CCc2cc(-c3n[nH]c4ncc(-c5ccc6c(c5)CC[C@@H](N5CCCC5)CC6)cc34)ccc21 (stereo partly drawn) [Example 30, 1-Methyl-5-{5-[(7S)-7-(pyrrolidin-1-yl)-6,7,8,9-tetrahydro-5H-benzo[7]annulen-2-yl]-1H-pyrazolo[3,4-b]pyridin-3-yl}-2,3-dihydro-1H-inden-1-ol] | > 7.00 |
| COCCN1CCc2ccc(-c3cnc4[nH]nc(-c5ccc6c(c5)OCCNC6=O)c4c3)cc2CC1 [Example 15, 8-(5-(3-(2-Methoxyethyl)-2,3,4,5-tetrahydro-1H-benzo[d]azepin-7-yl)-1H-pyrazolo[3,4-b]pyridin-3-yl)-3,4-dihydrobenzo[f][1,4]oxazepin-5(2H)-one] | > 7.00 |
| C[C@@H]1CCCN1C1CCc2ccc(-c3cnc4[nH]nc(-c5ccc6c(c5)O[C@@H](C)CNC6=O)c4c3)cc2CC1 (stereo partly drawn) [Example 62, (2S)-2-Methyl-8-(5-{7-[(2R)-2-methylpyrrolidin-1-yl]-6,7,8,9-tetrahydro-5H-benzo[7]annulen-2-yl}-1H-pyrazolo[3,4-b]pyridin-3-yl)-2,3,4,5-tetrahydro-1,4-benzoxazepin-5-one] | > 7.00 |
| O=C1NCCOc2cc(-c3n[nH]c4ncc(-c5ccc6c(c5)CCC(N5CCC[C@@H]5CO)CC6)cc34)ccc21 (stereo partly drawn) [Example 49, 8-(5-{7-[(2R)-2-(Hydroxymethyl)pyrrolidin-1-yl]-6,7,8,9-tetrahydro-5H-benzo[7]annulen-2-yl}-1H-pyrazolo[3,4-b]pyridin-3-yl)-2,3,4,5-tetrahydro-1,4-benzoxazepin-5-one] | > 7.00 |
| C[C@H]1CCCN1C1CCc2ccc(-c3cnc4[nH]nc(-c5ccc6c(c5)OCCNC6=O)c4c3)cc2CC1 (stereo partly drawn) [Example 43, 8-(5-{7-[(2S)-2-Methylpyrrolidin-1-yl]-6,7,8,9-tetrahydro-5H-benzo[7]annulen-2-yl}-1H-pyrazolo[3,4-b]pyridin-3-yl)-2,3,4,5-tetrahydro-1,4-benzoxazepin-5-one] | > 7.00 |
| CC1(C)NS(=O)(=O)c2cc(-c3n[nH]c4ncc(-c5ccc6c(c5)CCC(N5CCCC5)CC6)cc34)ccc21 (stereo not shown) [Example 32, 3,3-Dimethyl-6-{5-[7-(pyrrolidin-1-yl)-6,7,8,9-tetrahydro-5H-benzo[7]annulen-2-yl]-1H-pyrazolo[3,4-b]pyridin-3-yl}-2,3-dihydro-1λ^6,2-benzothiazole-1,1-dione] | > 7.00 |
| C[C@H]1CCCN1C1Cc2ccc(-c3cnc4[nH]nc(-c5ccc6c(c5)OCC(C)(C)NC6=O)c4c3)cc2C1 (stereo partly drawn) [Example 39, 3,3-Dimethyl-8-(5-{2-[(2S)-2-methylpyrrolidin-1-yl]-2,3-dihydro-1H-inden-5-yl}-1H-pyrazolo[3,4-b]pyridin-3-yl)-2,3,4,5-tetrahydro-1,4-benzoxazepin-5-one] | > 7.00 |
| Cc1c(-c2n[nH]c3ncc(-c4ccc5c(c4)CCC(N4CCC[C@H]4C)CC5)cc23)ccc2c1OCCNC2=O (stereo partly drawn) [Example 41, 9-Methyl-8-(5-{7-[(2R)-2-methylpyrrolidin-1-yl]-6,7,8,9-tetrahydro-5H-benzo[7]annulen-2-yl}-1H-pyrazolo[3,4-b]pyridin-3-yl)-2,3,4,5-tetrahydro-1,4-benzoxazepin-5-one] | > 7.00 |
